The text below walks through data of US20230092890A1, “1, 3, 4-Oxadiazole derivative compounds as histone deacetylase 6 inhibitor, and the pharmaceutical composition comprising the same” (Chong Kun Dang Pharmaceutical Corp., priority 2019, published 2023).

Experiment [1] deals with T1, HDAC6 human recombinant (Homo sapiens, UniProt Q9UBN7).
T1 construct: purchased Calbiochem 382180
T1 sequence (Q9UBN7 1-1215): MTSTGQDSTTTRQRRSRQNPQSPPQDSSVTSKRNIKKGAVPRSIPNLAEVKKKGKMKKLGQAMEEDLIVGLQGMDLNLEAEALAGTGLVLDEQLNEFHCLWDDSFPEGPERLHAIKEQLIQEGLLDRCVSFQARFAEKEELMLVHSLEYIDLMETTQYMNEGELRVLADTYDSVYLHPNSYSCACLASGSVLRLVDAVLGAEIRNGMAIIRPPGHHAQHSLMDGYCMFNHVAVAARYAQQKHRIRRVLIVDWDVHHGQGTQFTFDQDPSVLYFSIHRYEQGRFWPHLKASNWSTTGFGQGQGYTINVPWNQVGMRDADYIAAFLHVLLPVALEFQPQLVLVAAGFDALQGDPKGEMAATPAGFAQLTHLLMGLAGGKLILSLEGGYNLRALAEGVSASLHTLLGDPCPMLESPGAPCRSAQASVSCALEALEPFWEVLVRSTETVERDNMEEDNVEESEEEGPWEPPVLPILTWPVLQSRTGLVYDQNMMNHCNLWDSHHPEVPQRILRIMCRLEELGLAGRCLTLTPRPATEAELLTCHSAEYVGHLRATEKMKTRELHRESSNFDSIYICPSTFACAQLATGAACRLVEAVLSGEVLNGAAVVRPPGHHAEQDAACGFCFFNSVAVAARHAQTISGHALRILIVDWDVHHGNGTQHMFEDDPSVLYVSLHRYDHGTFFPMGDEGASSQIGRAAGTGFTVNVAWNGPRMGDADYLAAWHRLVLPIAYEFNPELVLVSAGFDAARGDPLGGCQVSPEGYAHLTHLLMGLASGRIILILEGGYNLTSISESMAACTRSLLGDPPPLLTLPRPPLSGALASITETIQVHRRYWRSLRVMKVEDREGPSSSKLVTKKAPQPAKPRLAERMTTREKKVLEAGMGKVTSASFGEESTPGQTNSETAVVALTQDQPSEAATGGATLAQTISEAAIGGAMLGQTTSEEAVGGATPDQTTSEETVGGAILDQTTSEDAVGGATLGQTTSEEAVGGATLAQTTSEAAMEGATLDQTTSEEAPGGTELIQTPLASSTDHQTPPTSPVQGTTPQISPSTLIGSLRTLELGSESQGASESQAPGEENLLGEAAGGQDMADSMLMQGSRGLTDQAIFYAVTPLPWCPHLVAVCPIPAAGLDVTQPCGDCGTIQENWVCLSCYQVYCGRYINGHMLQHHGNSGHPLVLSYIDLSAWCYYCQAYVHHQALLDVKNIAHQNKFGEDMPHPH
The experiment is described as follows: HDAC enzyme activity inhibition (in vitro), HDAC6 assay. In kind it is biochemical. As to conditions: samples at 0.1, 1, 10, 100 and 1000 nM; 37° C. 60 minutes; fluorescence Ex 390, Em 460; read-out: HDAC6 IC50. In a few lines:
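Fluorescence (Ex 390, Em 460) read after a 37° C, 60 min enzyme reaction and a further 30 min developer step at 37° C. Uses recombinant human HDAC6; HDAC1 arm dosed at 100, 1000, 10000 nM.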

Experiment [2] deals with T2, HDAC1 (Homo sapiens, UniProt Q13547).
T2 construct: purchased Enzolifesciences BML-AK511
Kind of experiment: HDAC enzyme activity inhibition (in vitro), HDAC1 Fluorimetric Drug Discovery Assay Kit. In kind it is biochemical. As to conditions: samples at 100, 1000 and 10000 nM; 37° C. 60 minutes; fluorescence Ex 390, Em 460; read-out: HDAC1 IC50. A digest of the protocol:
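Fluorimetric read-out (Ex 390, Em 460) after a 60 min 37° C enzyme reaction and 30 min 37° C developer step. Tested levels: 0.1-1000 nM (0.1, 1, 10, 100, 1000) on recombinant human HDAC6; 100, 1000 and 10000 nM on HDAC1 kit enzyme.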

T2 sequence (Q13547 whole entry): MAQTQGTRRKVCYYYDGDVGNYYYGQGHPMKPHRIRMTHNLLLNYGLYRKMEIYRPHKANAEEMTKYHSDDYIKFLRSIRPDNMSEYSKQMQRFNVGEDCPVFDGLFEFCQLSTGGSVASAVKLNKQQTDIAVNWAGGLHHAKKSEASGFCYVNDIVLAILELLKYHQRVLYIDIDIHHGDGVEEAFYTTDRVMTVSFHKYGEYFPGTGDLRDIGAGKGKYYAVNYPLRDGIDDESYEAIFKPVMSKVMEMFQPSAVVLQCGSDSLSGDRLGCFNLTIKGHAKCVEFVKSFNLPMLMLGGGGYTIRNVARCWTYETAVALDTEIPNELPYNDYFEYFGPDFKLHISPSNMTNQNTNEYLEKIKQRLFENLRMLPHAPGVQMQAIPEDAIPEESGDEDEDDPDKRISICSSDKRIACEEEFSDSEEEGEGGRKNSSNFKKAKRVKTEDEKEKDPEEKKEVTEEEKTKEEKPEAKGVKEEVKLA

Usually IC50 stands for the midpoint of a concentration-inhibition curve. As for `O=c1sc2cc(-c3cnn(C4CCN(CC5(F)CC5)CC4)c3)ccc2n1Cc1ccc(-c2nnc(C(F)F)o2)cn1` [Compound 357, 3-((5-(5-(difluoromethyl)-1,3,4-oxadiazole-2-yl)pyridine-2-yl)methyl)-6-(1-(1-((1-fluorocyclopropyl)methyl)piperidine-4-yl)-1H-pyrazole-4-yl)benzo[d]thiazole-2(3H)-one], the IC50 in experiment [1] was 42 nM; in experiment [2] it was greater than 10000 nM.
The matching figures for `CC(C)(C)OC(=O)N1CCC(n2cc(-c3cc4oc(=O)n(Cc5ccc(-c6nnc(C(F)F)o6)cn5)c4cc3F)cn2)CC1` [Compound 358, tert-butyl 4-(4-(3-((5-(5-(difluoromethyl)-1,3,4-oxadiazole-2-yl)pyridine-2-yl)methyl)-5-fluoro-2-oxo-2,3-dihydrobenzo[d]oxazole-6-yl)-1H-pyrazole-1-yl)piperidine-1-carboxylate]: 130 nM and greater than 10000 nM.
The like results for `O=c1oc2cc(-c3cnn(C4CCNCC4)c3)c(F)cc2n1Cc1ccc(-c2nnc(C(F)F)o2)cn1` [Compound 359, 3-((5-(5-(difluoromethyl)-1,3,4-oxadiazole-2-yl)pyridine-2-yl)methyl)-5-fluoro-6-(1-(piperidine-4-yl)-1H-pyrazole-4-yl)benzo[d]oxazole-2(3H)-one] were, in that order, 33 nM and greater than 10000 nM.
The matching figures for `CN1CCC(n2cc(-c3cc4oc(=O)n(Cc5ccc(-c6nnc(C(F)F)o6)cn5)c4cc3F)cn2)CC1` [Compound 360, 3-((5-(5-(difluoromethyl)-1,3,4-oxadiazole-2-yl)pyridine-2-yl)methyl)-5-fluoro-6-(1-(1-methylpiperidine-4-yl)-1H-pyrazole-4-yl)benzo[d]oxazole-2(3H)-one]: 27 nM and greater than 10000 nM.
For the compound `CC(C)N1CCC(n2cc(-c3cc4oc(=O)n(Cc5ccc(-c6nnc(C(F)F)o6)cn5)c4cc3F)cn2)CC1` [Compound 361, 3-((5-(5-(difluoromethyl)-1,3,4-oxadiazole-2-yl)pyridine-2-yl)methyl)-5-fluoro-6-(1-(1-isopropylpiperidine-4-yl)-1H-pyrazole-4-yl)benzo[d]oxazole-2(3H)-one], the IC50 in experiment [1] is 23 nM; in experiment [2], greater than 10000 nM.
The matching figures for `O=c1oc2cc(-c3cnn(C4CCN(C5COC5)CC4)c3)c(F)cc2n1Cc1ccc(-c2nnc(C(F)F)o2)cn1` [Compound 362, 3-((5-(5-(difluoromethyl)-1,3,4-oxadiazole-2-yl)pyridine-2-yl)methyl)-5-fluoro-6-(1-(1-(oxetan-3-yl)piperidine-4-yl)-1H-pyrazole-4-yl)benzo[d]oxazole-2(3H)-one]: 31 nM and greater than 10000 nM.
Consider `O=c1oc2cc(-c3cnn(C4CCN(CC(F)(F)F)CC4)c3)c(F)cc2n1Cc1ccc(-c2nnc(C(F)F)o2)cn1` [Compound 363, 3-((5-(5-(difluoromethyl)-1,3,4-oxadiazole-2-yl)pyridine-2-yl)methyl)-5-fluoro-6-(1-(1-(2,2,2-trifluoroethyl)piperidine-4-yl)-1H-pyrazole-4-yl)benzo[d]oxazole-2(3H)-one], for which the IC50 was 75 nM in experiment [1] and greater than 10000 nM in experiment [2].
As for `CN1CCN(c2cc(-c3cc4oc(=O)n(Cc5ccc(-c6nnc(C(F)F)o6)cn5)c4cc3F)ccn2)CC1` [Compound 364, 3-((5-(5-(difluoromethyl)-1,3,4-oxadiazole-2-yl)pyridine-2-yl)methyl)-5-fluoro-6-(2-(4-methylpiperazine-1-yl)pyridine-4-yl)benzo[d]oxazole-2(3H)-one], the IC50 in experiment [1] was 26 nM; in experiment [2], greater than 10000 nM.
`CC(C)N1CCN(c2cc(-c3cc4oc(=O)n(Cc5ccc(-c6nnc(C(F)F)o6)cn5)c4cc3F)ccn2)CC1` [Compound 365, 3-((5-(5-(difluoromethyl)-1,3,4-oxadiazole-2-yl)pyridine-2-yl)methyl)-5-fluoro-6-(2-(4-isopropylpiperazine-1-yl)pyridine-4-yl)benzo[d]oxazole-2(3H)-one]: the IC50 in experiment [1] was 33 nM; in experiment [2], greater than 10000 nM.
On to `O=c1oc2cc(-c3ccnc(N4CCN(C5COC5)CC4)c3)c(F)cc2n1Cc1ccc(-c2nnc(C(F)F)o2)cn1` [Compound 366, 3-((5-(5-(difluoromethyl)-1,3,4-oxadiazole-2-yl)pyridine-2-yl)methyl)-5-fluoro-6-(2-(4-(oxetan-3-yl)piperazine-1-yl)pyridine-4-yl)benzo[d]oxazole-2(3H)-one], for which the IC50 in experiment [1] is 52 nM; in experiment [2], greater than 10000 nM.
The matching figures for `O=c1oc2cc(-c3ccnc(N4CCN(C5CCC5)CC4)c3)c(F)cc2n1Cc1ccc(-c2nnc(C(F)F)o2)cn1` [Compound 367, 6-(2-(4-cyclobutylpiperazine-1-yl)pyridine-4-yl)-3-((5-(5-(difluoromethyl)-1,3,4-oxadiazole-2-yl)pyridine-2-yl)methyl)-5-fluorobenzo[d]oxazole-2(3H)-one]: 312 nM and greater than 10000 nM.
Take `O=c1oc2cc(-c3ccnc(N4CCNCC4)c3)c(F)cc2n1Cc1ccc(-c2nnc(C(F)F)o2)cn1` [Compound 368, 3-((5-(5-(difluoromethyl)-1,3,4-oxadiazole-2-yl)pyridine-2-yl)methyl)-5-fluoro-6-(2-(piperazine-1-yl)pyridine-4-yl)benzo[d]oxazole-2(3H)-one]: the IC50 in experiment [1] is 18 nM; in experiment [2], greater than 10000 nM.
